This is an account of results in article PMC12040169 (PLOS Biology, 2025).

In general, IC50 refers to the concentration that gives 50% inhibition. Usually viability stands for a read-out of living cells in per cent, often relative to untreated cells.

Series [1] has as its target T1, acyl-modification-free ctFabH (Chlamydia trachomatis, UniProt O84242).
T1 construct: gene fabH
T1 sequence (O84242 2-327): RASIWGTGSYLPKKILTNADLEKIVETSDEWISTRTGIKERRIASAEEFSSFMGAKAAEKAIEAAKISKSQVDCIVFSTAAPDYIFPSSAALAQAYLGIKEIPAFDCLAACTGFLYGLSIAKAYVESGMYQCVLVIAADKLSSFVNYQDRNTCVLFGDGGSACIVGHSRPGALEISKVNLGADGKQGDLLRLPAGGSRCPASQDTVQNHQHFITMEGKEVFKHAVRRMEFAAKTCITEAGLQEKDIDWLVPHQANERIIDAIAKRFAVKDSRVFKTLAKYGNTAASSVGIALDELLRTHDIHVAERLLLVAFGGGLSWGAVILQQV
The series is described as follows: intact protein LC/MS. The class given is biochemical. The following applies: covalent acyl-enzyme intermediate; 10 µM protein, 50 µM acyl-CoA, pH 7.0.

The subject of series [2] is T2, G. vaginalis.
T2 construct: DSM 4944
The series is described as follows: microbe, parasite or virus in culture. Further details: Microbial growth in liquid dilution assay, OD600 relative to DMSO control. The following applies: Gardnerella vaginalis, read-out: G. vaginalis, IC50 (µM) estimate.

Series [3] deals with T3, ctFabH (CTL2 FabH), His6(-fMet)SG-ctFabH (Chlamydia trachomatis, UniProt O84242).
T3 construct: synthetic gene, modified pRSF-Duet1, E. coli host; partly acylated (mainly pentanoyl) as purified
T3 sequence (O84242 2-327): T1 sequence (O84242 2-327)
The series is described as follows: continuous UV assay of acetoacetyl-CoA at […] nm. The format is biochemical. Particulars: covalent; 20 µM enzyme, 30 µM compound, 100 µM acetyl-CoA, 100 µM malonyl-CoA, pH 8.0, 25 °C, 50 mM MgCl2; with or without CoA preincubation.

Series [4] concerns T4, C. trachomatis L2/434/Bu expressing GFP (CTL2-GFP).
T4 construct: L2/434/Bu GFP intracellular growth in HeLa cells
The series is described as follows: microbe, parasite or virus in culture. Details: C. trachomatis GFP growth in infected HeLa cells, bulk GFP fluorescence normalised to DMSO. The following applies: Chlamydia trachomatis, HeLa, 26 h; read-out: IC50 (µM), bulk GFP fluorescence. On the procedure: (§1) MICs were calculated as described above.

For series [5] the test system is unchanged. Description: microbe, parasite or virus in culture. Details: species or system HeLa; C. trachomatis GFP growth in infected HeLa cells, bulk GFP fluorescence normalised to DMSO. Particulars: Chlamydia trachomatis, 26 h; read-out: MIC (µM), bulk GFP fluorescence. On the procedure:
as §1

Series [6] concerns the target T1, acyl-modification-free ctFabH. Description: intact protein LC/MS; MS/MS of tryptic peptides. The format is binding. Particulars: covalent; active site cysteine; 10 µM protein, 50 µM compound, pH 7.0, 10 min to 1 h.
Series [7] is described as follows: in vitro. Particulars: human, hela cells; bulk resorufin, mean of 3. Further details: Viability of infected HeLa host cells, resazurin conversion, bulk resorufin fluorescence relative to DMSO.
Series [8] has as its system T5, C. albicans.
T5 construct: DSM 1577
The series is described as follows: microbe, parasite or virus in culture. Further details: Microbial growth in liquid dilution assay, OD600 relative to DMSO control. The following applies: Candida albicans, read-out: C. albicans, IC50 (µM) estimate.

Series [9] concerns T6, L. crispatus.
T6 construct: DSM 20584
The series is described as follows: microbe, parasite or virus in culture. The following applies: Lactobacillus crispatus; estimated IC50; read-out: L. crispatus, IC50 (µM) estimate. Details: Microbial growth in liquid dilution assay, OD600 relative to DMSO control.

The subject of series [10] is T7, CTL2-GFP (C. trachomatis L2/434/Bu, GFP-expressing).
T7 construct: L2/434/Bu, GFP-expressing
The series is described as follows: microbe, parasite or virus in culture. Details: species or system HeLa; C. trachomatis growth in HeLa, dose-response, mean of bulk GFP fluorescence and imaged total inclusion area. The following applies: Chlamydia trachomatis, 28.5 h; mean of GFP and inclusion area. The procedure, abridged:
(§2)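 Read-out combines bulk fluorescence and imaging: GFP tracks chlamydial growth, resorufin tracks host cell viability. Plates were then fixed and Hoechst-stained so inclusions and nuclei could be imaged and counted per well.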

In series [11] the test system is T4, C. trachomatis L2/434/Bu expressing GFP (CTL2-GFP). Description: microbe, parasite or virus in culture. Details: C. trachomatis total inclusion area by high-content imaging, normalised to DMSO. Particulars: Chlamydia trachomatis, HeLa, 28.5 h; read-out: IC50 (µM), total inclusion area. An outline of the steps:
as §2

For series [12] the test system is unchanged. The series is described as follows: microbe, parasite or virus in culture. Particulars: Chlamydia trachomatis, 28.5 h; read-out: MIC (µM), total inclusion area. Further details: species or system HeLa; C. trachomatis total inclusion area by high-content imaging, normalised to DMSO. From the text: We screened a library of 36,785 small molecules displaying drug-like properties and covering a wide chemical space (Fig 1A and S2A Data). In this process, we also complemented the assay described above with an imaging-based readout (Fig 1B). After measurements of bulk GFP and resorufin fluorescence, cells were fixed, stained with the DNA dye Hoechst, and imaged at a high-content imaging platform to detect chlamydial inclusions (GFP) and host cell nuclei (Hoechst). The total area and number of inclusions in individual wells and the number of nuclei then served as additional proxies for chlamydial growth and host cell viability. […] MICs were calculated as described above.

The subject of series [13] is T8, L. reuteri.
T8 construct: DSM 20016
Description: microbe, parasite or virus in culture. Details: Microbial growth in liquid dilution assay, OD600 relative to DMSO control. The following applies: Limosilactobacillus reuteri; estimated IC50; read-out: L. reuteri, IC50 (µM) estimate. The procedure, abridged: (§3)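 Commensal strains were grown with compounds in a dilution assay, with 30 µM among the concentrations used. A wider panel of gut bacteria was tested by radial diffusion, with 24–48 h compound exposure before growth inhibition zones were measured.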

Series [14] has as its system T9, B. thetaiotaomicron.
T9 construct: DSM 2079
The series is described as follows: microbe, parasite or virus in culture. The following applies: Bacteroides thetaiotaomicron; estimated IC50; read-out: B. thetaiotaomicron, IC50 (µM) estimate. Further details: Microbial growth in liquid dilution assay, OD600 relative to DMSO control. The procedure, abridged:
as §3

In series [15] the test system is T10, E. coli.
T10 construct: DSM 301
The series is described as follows: microbe, parasite or virus in culture. Particulars: Escherichia coli; estimated IC50; read-out: E. coli, IC50 (µM) estimate. Details: Microbial growth in liquid dilution assay, OD600 relative to DMSO control. An outline of the steps:
as §3

Series [16] deals with T11, E. faecalis.
T11 construct: DSM 20478
Description: microbe, parasite or virus in culture. Details: Microbial growth in liquid dilution assay, OD600 relative to DMSO control. Particulars: Enterococcus faecalis; estimated IC50; read-out: E. faecalis, IC50 (µM) estimate. The procedure, abridged: as §3

The subject of series [17] is T12, B. adolescentis.
T12 construct: DSM 20083
The series is described as follows: microbe, parasite or virus in culture. Particulars: Bifidobacterium adolescentis; estimated IC50; read-out: B. adolescentis, IC50 (µM) estimate. Further details: Microbial growth in liquid dilution assay, OD600 relative to DMSO control. The procedure, abridged: as §3

For series [18], the system named is T7, CTL2-GFP (C. trachomatis L2/434/Bu, GFP-expressing). The series is described as follows: microbe, parasite or virus in culture. Particulars: Chlamydia trachomatis, HeLa, 28.5 h; mean of GFP and inclusion area. Details: C. trachomatis growth in HeLa, dose-response, mean of bulk GFP fluorescence and imaged total inclusion area. An outline of the steps:
as §2

The subject of series [19] is T13, L. iners.
T13 construct: DSM 13335
The series is described as follows: organism not typed. Details: Microbial growth in liquid dilution assay, OD600 relative to DMSO control. The following applies: estimated IC50; read-out: L. iners, IC50 (µM) estimate.

Converted amounts (≈) assume the structure as drawn. Read-outs that look alike come from different tables or passages of the source.

On to `CC[C@H](C)C(=O)SCCNC(=O)CCNC(=O)[C@H](O)C(C)(C)COP(=O)(O)OP(=O)(O)OC[C@H]1O[C@@H](n2cnc3c(N)ncnc32)[C@H](O)[C@@H]1OP(=O)(O)O` [2-methylbutyryl-CoA], for which, in [1], the “intact protein LC/MS” value is recorded as “incubation of this stripped ctFabH with 2-methylbutyryl-CoA or isovaleryl-CoA”.

Regarding `O=C1Oc2nc3ccccc3cc2CN1C1CC1` [c1e], the IC50 in series [2] is > 30 µM; in [4] it was 0.0226 µM; in series [8] it was > 30 µM; in [9] it was > 30 µM; in [11] it was 0.0199 µM; in series [13], > 30 µM. Moreover, the IC50 was > 30 µM in series [14]; > 30 µM in series [15]; > 30 µM in series [16]; > 30 µM in series [17]; 0.0213 µM in series [18]; > 30 µM in [19]. Further, the inhibition entry in [3] is reported as “c1e displayed inhibitory activity towards ctFabH when added at about equimolar concentration”. Besides, the MIC in series [5] was found to be 0.038 µM (≈ 0.00913 µg/mL); in series [10] it was 0.042 µM (≈ 0.0101 µg/mL); in [12], 0.046 µM (≈ 0.0111 µg/mL). For the same compound, in [6], the “intact protein LC/MS; MS/MS of tryptic peptides” value is given as “incubation with c1e generated an FabH-c1e adduct”. For the same compound, the viability at 28.5 h, 0.000416667 µM in series [7] was found to be 95.3%. Moreover, the viability at 28.5 h, 0.00125 µM in [7] amounted to 82.8%. The viability at 28.5 h, 0.00375 µM in series [7] was 88.7%. Besides, the viability at 28.5 h, 0.0123333 µM in [7] was found to be 87.6%. Moreover, the viability at 28.5 h, 0.037 µM in series [7] came to 93.9%. The viability at 28.5 h, 0.111 µM in series [7] stood at 89.2%. In series [7], the viability at 28.5 h, 0.333 µM amounted to 91.7%. In addition, in [7], the viability at 28.5 h, 1 µM was 89.5%. For the same compound, the viability at 28.5 h, 3 µM in series [7] turned out to be 98.2%. Moreover, the viability at 28.5 h, 10 µM in [7] is 103%. Further, the viability at 28.5 h, 30 µM in [7] was found to be 46.5%.
